Assay results from patent US10570104B2, “Metabolically programmed metal chelators and uses thereof” (University of Florida Research Foundation, Incorporated, priority 2015, dated 2020).
Entries after “also recorded” stand apart in the source; their conditions may differ. Like-named read-outs stand apart in the source and are kept apart here.

Experiments:
[1] = log Papp, octanol/TRIS buffer pH 7.4, shake flask direct method; assay type: physicochemical; details: not told
Excerpt: The redesign of 2 was predicated on the observation that both ligands 2 and 3 were orally active iron chelators in rodents and primates (Table 1), and that when the 4′-(OH) of 2 was methylated, providing (S)-4,5-dihydro-2-(2-hydroxy-4-methoxyphenyl)-4-methyl-4-thiazolecarboxylic acid^43 [(S)-4′-(CH3O)-DADFT, 4], there was a remarkable enhancement in both ICE and lipophilicity (log Papp). The log Papp data are expressed as the log of the fraction of the chelator seen in the octanol layer; measurements were done in TRIS buffer, pH 7.4, using a “shake flask” direct method.^49 The more negative the log Papp, the less chelator is in the octanol phase, the less lipophilic. Unfortunately, the increase in ICE of 4 came with a concomitant increase in toxicity.^50 Thus, the delicate balance between the increase in ICE and toxicity with enhanced lipophilicity needed to be understood and exploited.

[2] = Chelator-induced iron clearance (ICE) in iron-overloaded Cebus apella primates; assay type: in vivo, Cebus apella monkeys; details: 75 μmol/kg, monosodium salt
Method: Iron Loading of Cebus apella Monkeys. The monkeys (3.5-6.5 kg) were iron overloaded with intravenous iron dextran as specified in earlier publications to provide about 500 mg of iron per kg of body weight; the serum transferrin iron saturation rose to between 70 and 80%.^38,40 At least 20 half-lives, 60 days, elapsed before any of the animals were used in experiments evaluating iron-chelating agents.
Primate Fecal and Urine Samples. Fecal and urine samples were collected at 24 hours intervals and processed as described previously^38,40,74 Briefly, the collections began 4 days prior to the administration of the test drug and continued for an additional 5 days after the drug was given. Iron concentrations were determined by flame absorption spectroscopy as presented in other publications.^38′^40
Drug Preparation and Administration.
Calculation of Chelator Iron Clearing Efficiency (ICE).

[3] = Tissue distribution/metabolism of chelators in rats given sc (HPLC); assay type: in vivo, Sprague-Dawley rats
Method: Collection of Chelator Tissue Distribution Samples from Rodents. Male Sprague-Dawley rats (250-350 g) were given a single subcutaneously injection of the monosodium salts of 8 and 11 prepared as described above at a dose of […]. At times 0.5, 1, 2, 4 and 8 hours after dosing (n=3 rats per time point), the animals were euthanized by exposure to CO2 gas. Blood was obtained via cardiac puncture into vacutainers containing sodium citrate. The blood was centrifuged, and the plasma was separated for analysis. The liver, kidney, heart, and pancreas were removed from the animals and frozen.
Tissue Analytical Methods. Tissue samples of animals treated with 8 were prepared for HPLC analysis by homogenizing them in H2O at a ratio of 1:1 (w/v). Then, as a rinse, CH3OH at a ratio of 1:3 (w/v) was added, and the mixture was stored at −20° C. for 30 min. This homogenate was centrifuged. The supernatant was diluted with H2O, vortexed, and filtered with a 0.2 μm membrane. Analytical separation was performed on a Supelco Discovery RP Amide C16 HPLC system with UV detection at 310 nm as described previously.^44,75 Mobile phase and chromatographic conditions were as follows: solvent A, 5% CH3CN/95% buffer (25 mM KH2PO4+2.5 mM 1-octanesulfonic acid, pH 3.0); solvent B, 60% CH3CN/40% buffer.
Tissue samples of animals treated with 11 were prepared for HPLC analysis by homogenizing them in 0.5 N HClO4 at a ratio of 1:3 (w/v). Then, as a rinse, CH3OH at a ratio of 1:3 (w/v) was added, and the mixture was stored at −20° C. for 30 min. This homogenate was centrifuged. The supernatant was diluted with 95% buffer (25 mM KH2PO4, pH 3.0)/5% CH3CN, vortexed, and filtered with a 0.2 μm membrane. Analytical separation was performed on a Supelco Ascentis Express RP-Amide HPLC system with UV detection at 310 nm as described previously. Mobile phase and chromatographic conditions were as for 8.
Ligand concentrations were calculated from the peak area fitted to calibration curves by nonweighted least-squares linear regression with Shimadzu Class-VP 7.4 software.

[4] = for Rat ICE (%): 300 μmol/kg, monosodium salt
Method: Sample collection and handling are as previously described.^38,40
Drug Preparation and Administration. In the iron clearing experiments, the rats were given 8-14 orally at a dose of 300 μmol/kg. […] The chelators were administered as their monosodium salts (prepared by the addition of 1 equiv of NaOH to a suspension of the free acid in distilled water).
Calculation of Chelator Iron Clearing Efficiency (ICE). The term “ICE” is used as a measure of the amount of iron excretion induced by a chelator. The ICE, expressed as a percent, is calculated as (ligand-induced iron excretion/theoretical iron excretion)×100. […] The theoretical iron outputs of the chelators were generated on the basis of a 2:1 ligand:iron complex. The efficiencies in the rats and monkeys were calculated as set forth elsewhere.^37 Data are presented as the mean±the standard error of the mean; p-values were generated via a one-tailed Student's t-test in which the inequality of variances was assumed, and a p-value of <0.05 was considered significant.

[5] = cited from earlier work
[6] = po, 300 μmol/kg; historical; cited from earlier work
[7] = po, 150 μmol/kg; historical; cited from earlier work

C[C@]1(C(=O)O)CSC(c2ccc(OCCOCCO)cc2O)=N1 [Compound 8, (S)-4,5-dihydro-2-[2-hydroxy-4-(5-hydroxy-3-oxapentyloxy)phenyl]-4-methyl-4-thiazolecarboxylic acid]
Log Papp [1]: −0.53 | Cebus ICE (%) ([2]; po): 9.8±3.4% | share of total drug concentration ([3]; sc 7, plasma, 0.5 hour): 5% | share of drug (parent+metabolite) ([3]; sc 8, 300 μmol/kg, liver, 0.5 hour): 53% | detection in liver ([3]; sc 8, 300 μmol/kg, liver, 8 hours): very little parent alcohol 8 | proportion of 8 converted to 9 ([3]; sc 8, 300 μmol/kg, plasma, 0.5 hour post drug): ~60% | detection in plasma ([3]; sc 8, 300 μmol/kg, plasma, 8 hour): Neither the parent 8 nor the metabolite 9 was found at the 8 hour time point | conversion of 8 to 9 ([3]; sc 8, 300 μmol/kg, tissues): very efficiently oxidized to carboxylic acid 9; also recorded: very efficiently converted to acid 9; also recorded: very quickly oxidized to 9 | Rat ICE (%) ([4]; po): 15.4 ± 5.6%

C[C@]1(C(=O)O)CSC(c2ccc(OCCCCCC(=O)O)cc2O)=N1 [Compound 12, (S)-4,5-dihydro-2-[2-hydroxy-4-(5-carboxypentyloxy)phenyl]-4-methyl-4-thiazolecarboxylic acid]
Log Papp [1]: −1.90 | Cebus ICE (%) ([2]; po): 10.6±4.0% | Cebus ICE (%) ([2]; sc): 18.8±8.7% | detection in heart ([3]; sc 11, heart): not found in the cardiac tissue at any of the time points | detection in kidney ([3]; sc 11, kidney): found at 0.5 and 1 hour post drug | detection in liver ([3]; sc 11, liver): not detected in the liver 2, 4, or 8 hours post dosing | share of total drug (parent+metabolites) ([3]; sc 11, liver, 0.5 hour): 11% | share of total drug (parent+metabolites) ([3]; sc 11, liver, 1 hour): 2% | detection in pancreas ([3]; sc 11, pancreas): not found at any of the time points | detection in plasma ([3]; sc 11, plasma): None of the first oxidation product of alcohol 11, the dicarboxylic acid 12, was detected in the plasma | Rat ICE (%) ([4]; po): 8.8 ± 1.8% | Rat ICE (%) ([4]; sc): 6.5 ± 1.5%

C[C@]1(C(=O)O)CSC(c2ccccc2O)=N1 [Compound 1a, (S)-4,5-dihydro-2-(2-hydroxyphenyl)-4-methyl-4-thiazolecarboxylic acid]
gastrointestinal toxicity ([5]; in vivo): serious gastrointestinal (GI) problems | nephrotoxicity ([5]; in vivo): not overtly nephrotoxic

COCCCCCCOc1ccc(C2=N[C@@](C)(C(=O)O)CS2)c(O)c1 [Compound 10, (S)-4,5-dihydro-2-[2-hydroxy-4-(6-methoxyhexyloxy)phenyl]-4-methyl-4-thiazolecarboxylic acid]
Log Papp [1]: 0.95 | time of death post drug ([4]; po 300 μmol/kg, bile duct-cannulated rats, one animal): about 22 hours | drug-induced iron excretion, peak ([4]; po 300 μmol/kg, 6 hours post drug): 300 μg/kg of iron | drug-induced iron excretion ([4]; po 300 μmol/kg, 24 hours post dosing): 80 μg/kg of iron | Rat ICE (%) ([4]; po): 15.8 ± 3.7% | overt toxicity ([4]; rats, po 300 μmol/kg, single dose): profoundly toxic; also recorded: very toxic; also recorded: Toxic in Rats

C[C@]1(C(=O)O)CSC(c2ccc(OCCCC(=O)O)cc2O)=N1 [Compound 13, (S)-4,5-dihydro-2-[2-hydroxy-4-(3-carboxypropyloxy)phenyl]-4-methyl-4-thiazolecarboxylic acid]
Log Papp [1]: −2.21 | Cebus ICE (%) ([2]; po): 5.4±1.5% | Cebus ICE (%) ([2]; sc): 18.1±7.5% | detection in heart ([3]; sc 11, heart): not found in the later time points | tissue concentration ([3]; sc 11, heart, 0.5 hour): ~46 nmol/g wet weight | tissue concentration ([3]; sc 11, heart, 1 hour): ~46 nmol/g wet weight | detection in kidney ([3]; sc 11, kidney): not detectable 8 hours post dosing | tissue concentration ([3]; sc 11, kidney, 0.5 hour): ~300 nmol/g wet weight | tissue concentration ([3]; sc 11, kidney, 1 hour): ~300 nmol/g wet weight | detection in liver ([3]; sc 11, liver): no 13 remained in the liver | share of total drug (parent+metabolites) ([3]; sc 11, liver, 0.5 hour): 71% | share of total drug (parent+metabolites) ([3]; sc 11, liver, 1 hour): 59% | share of total drug (metabolites) ([3]; sc 11, liver, 2 hours): 66% | share of total drug (metabolites) ([3]; sc 11, liver, 4 hours): 70% | tissue concentration ([3]; sc 11, pancreas, 0.5 hour): 19 nmol/g wet weight | tissue concentration ([3]; sc 11, pancreas, 1 hour): 23 nmol/g wet weight | share of total (parent+metabolites) ([3]; sc 11, plasma, 0.5 hour): 62% | share of total (parent+metabolites) ([3]; sc 11, plasma, 4 hours): 50% | share of total (parent+metabolites) ([3]; sc 11, plasma, 8 hours): 65% | Rat ICE (%) ([4]; po): 3.7 ± 1.7% | Rat ICE (%) ([4]; sc): 4.3 ± 1.1%

C[C@]1(C(=O)O)CSC(c2ccc(OCC(=O)O)cc2O)=N1 [Compound 14, (S)-4,5-dihydro-2-[2-hydroxy-4-(carboxymethoxy)phenyl]-4-methyl-4-thiazolecarboxylic acid]
Log Papp [1]: −1.98 | Cebus ICE (%) ([2]; po): 3.0±2.7% | Cebus ICE (%) ([2]; sc): 15.9±4.3% | detection in heart ([3]; sc 11, heart): not found in the 2-8 hour time points | tissue concentration ([3]; sc 11, heart, 0.5 hour): 17 nmol/g wet weight | tissue concentration ([3]; sc 11, heart, 1 hour): 23 nmol/g wet weight | tissue concentration ([3]; sc 11, kidney, 0.5 hour): 156 nmol/g wet weight | tissue concentration ([3]; sc 11, kidney, 1 hour): 201 nmol/g wet weight | tissue concentration ([3]; sc 11, kidney, 2 hours): 161 nmol/g wet weight | tissue concentration ([3]; sc 11, kidney, 8 hours): 5 nmol/g wet weight | detection in liver ([3]; sc 11, liver): only trace amounts of 14 were detected | share of total drug (parent+metabolites) ([3]; sc 11, liver, 0.5 hour): 18% | share of total drug (parent+metabolites) ([3]; sc 11, liver, 1 hour): 39% | detection in pancreas ([3]; sc 11, pancreas): Trace amounts of 14 were found at 0.5, 1, and 2 hours post dosing | share of total (parent+metabolites) ([3]; sc 11, plasma, 0.5 hour): 16% | share of total (parent+metabolites) ([3]; sc 11, plasma, 4 hours): 50% | share of total (parent+metabolites) ([3]; sc 11, plasma, 8 hours): the remainder | Rat ICE (%) ([4]; po): 2.6 ± 1.6% | Rat ICE (%) ([4]; sc): 6.0 ± 1.9%

C[C@]1(C(=O)O)CSC(c2cccc(O)c2O)=N1 [Compound 3, (S)-2-(2,3-dihydroxyphenyl)-4,5-dihydro-4-methyl-4-thiazolecarboxylic acid]
Log Papp [1]: −1.17 | Rodent ICE (%) [6]: 4.6 ± 0.9% | Primate ICE (%) [7]: 23.1 ± 5.9%

CCCCOc1ccc(C2=N[C@@H](C(=O)O)CS2)c(O)c1 [4′-butoxy analogue of 2, (S)-2-(4-butoxy-2-hydroxyphenyl)-4,5-dihydro-4-thiazolecarboxylic acid]
time of deaths ([5]; same scenario as with 10): ≤ 24 h
